Each cell line was assayed with CC1=CC(=CC=C1)NC2=NC(=CS2)C3=CC=NC=C3 + Cc1nc(Nc2ncc(C(=O)Nc3c(C)cccc3Cl)s2)cc(N2CCN(CCO)CC2)n1 [Dasatinib] (partner 0.075 µM) (assay: relative viability (nuclei count vs DMSO), 5 days (fraction); higher = more cells survive). Settings: first compound 0.08 µM.
Procedure, shortened: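 The day after seeding in 1536-well plates, lung cancer cell lines were treated by pin tool with a single drug, or with a fixed anchor-drug dose together with five library-drug doses (not always all listed) in √10 steps. After 5 days, a combined fix-and-stain solution (final 0.05% Triton X-100, 1% formaldehyde, 1 ug/ml Hoechst) was added. Nuclei counted on 4× images gave relative viability as treated counts over vehicle counts, reported as the median of duplicate plates.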

| Cell Line | relative viability |
| --- | --- |
| LCLC-97TM1 | 0.898 |
| NCI-H2023 | 0.456 |
| A-427 | 0.61 |
| NCI-H460 | 0.44 |
| NCI-H1755 | 0.331 |
| NCI-H520 | 0.225 |
| NCI-H2405 | 0.202 |
| SW 1573 | 0.612 |
| NCI-H1395 | 0.364 |
| 201T | 0.59 |
| NCI-H1975 | 0.366 |
| HCC-827 | 0.422 |
| NCI-H2347 | 0.274 |
| NCI-H1355 | 0.399 |
| NCI-H650 | 0.366 |
| CAL-12T | 0.423 |
| NCI-H1666 | 0.734 |
| EPLC-272H | 0.396 |
| NCI-H23 | 0.74 |
| NCI-H1915 | 0.282 |
| NCI-H1437 | 0.497 |
| NCI-H322M | 0.244 |
| NCI-H2085 | 0.241 |
| HCC-15 | 0.467 |
| NCI-H1944 | 0.202 |
| PC-3 [JPC-3] | 0.974 |
| EKVX | 0.208 |
| LC-2-ad | 0.522 |
| NCI-H1650 | 0.325 |
| NCI-H2170 | 0.581 |

Same assay, conditions: first compound 0.253 µM

| Cell Line | relative viability |
| --- | --- |
| HARA | 0.269 |
| NCI-H441 | 0.482 |
| LCLC-97TM1 | 0.824 |
| NCI-H2023 | 0.427 |
| A-427 | 0.658 |
| NCI-H460 | 0.306 |
| NCI-H727 | 0.425 |
| NCI-H1755 | 0.417 |
| NCI-H520 | 0.239 |
| NCI-H2405 | 0.176 |
| SW 1573 | 0.369 |
| NCI-H1395 | 0.372 |
| 201T | 0.515 |
| NCI-H1975 | 0.353 |
| HCC-827 | 0.352 |
| NCI-H2347 | 0.301 |

| Cell Line | relative viability |
| --- | --- |
| NCI-H1355 | 0.463 |
| NCI-H650 | 0.413 |
| CAL-12T | 0.321 |
| NCI-H1666 | 0.737 |
| EPLC-272H | 0.338 |
| NCI-H23 | 0.542 |
| NCI-H1915 | 0.328 |
| NCI-H1437 | 0.438 |
| NCI-H322M | 0.222 |
| NCI-H2085 | 0.243 |
| HCC-15 | 0.469 |
| NCI-H1944 | 0.208 |
| PC-3 [JPC-3] | 0.95 |
| EKVX | 0.518 |
| NCI-H1650 | 0.28 |
| NCI-H2170 | 0.574 |

Same assay, conditions: first compound 0.8 µM

| Cell Line | relative viability |
| --- | --- |
| HARA | 0.399 |
| NCI-H441 | 0.834 |
| LCLC-97TM1 | 0.963 |
| NCI-H2023 | 0.434 |
| A-427 | 0.681 |
| NCI-H460 | 0.554 |
| NCI-H727 | 0.517 |
| NCI-H1755 | 0.355 |
| NCI-H520 | 0.25 |
| NCI-H2405 | 0.15 |
| SW 1573 | 0.612 |
| NCI-H1395 | 0.402 |
| 201T | 0.497 |
| NCI-H1975 | 0.295 |
| HCC-827 | 0.437 |
| NCI-H1355 | 0.341 |

| Cell Line | relative viability |
| --- | --- |
| NCI-H650 | 0.447 |
| CAL-12T | 0.332 |
| NCI-H1666 | 0.699 |
| EPLC-272H | 0.273 |
| NCI-H23 | 0.741 |
| NCI-H1915 | 0.289 |
| NCI-H1437 | 0.586 |
| NCI-H322M | 0.257 |
| NCI-H2085 | 0.241 |
| HCC-15 | 0.589 |
| NCI-H1944 | 0.328 |
| PC-3 [JPC-3] | 0.881 |
| EKVX | 0.552 |
| LC-2-ad | 0.59 |
| NCI-H1650 | 0.366 |
| NCI-H2170 | 0.609 |

Same assay, conditions: first compound 2.53 µM

| Cell Line | relative viability |
| --- | --- |
| HARA | 0.281 |
| NCI-H441 | 0.585 |
| LCLC-97TM1 | 0.856 |
| NCI-H2023 | 0.348 |
| A-427 | 0.681 |
| NCI-H460 | 0.381 |
| NCI-H727 | 0.383 |
| NCI-H1755 | 0.185 |
| NCI-H520 | 0.209 |
| NCI-H2405 | 0.16 |
| SW 1573 | 0.603 |
| NCI-H1395 | 0.397 |
| 201T | 0.508 |
| NCI-H1975 | 0.22 |
| HCC-827 | 0.455 |
| NCI-H2347 | 0.388 |
| NCI-H1355 | 0.386 |

| Cell Line | relative viability |
| --- | --- |
| NCI-H650 | 0.376 |
| CAL-12T | 0.299 |
| NCI-H1666 | 0.522 |
| EPLC-272H | 0.288 |
| NCI-H23 | 0.714 |
| NCI-H1915 | 0.318 |
| NCI-H1437 | 0.392 |
| NCI-H322M | 0.264 |
| NCI-H2085 | 0.186 |
| HCC-15 | 0.499 |
| NCI-H1944 | 0.243 |
| PC-3 [JPC-3] | 0.87 |
| EKVX | 0.446 |
| LC-2-ad | 0.431 |
| NCI-H1650 | 0.228 |
| NCI-H2170 | 0.564 |

Same assay, conditions: first compound 8 µM

| Cell Line | relative viability |
| --- | --- |
| HARA | 0.278 |
| NCI-H441 | 0.585 |
| LCLC-97TM1 | 1.01 |
| NCI-H2023 | 0.338 |
| A-427 | 0.518 |
| NCI-H460 | 0.343 |
| NCI-H727 | 0.398 |
| NCI-H1755 | 0.321 |
| NCI-H520 | 0.243 |
| NCI-H2405 | 0.22 |
| SW 1573 | 0.432 |
| NCI-H1395 | 0.404 |
| 201T | 0.382 |
| NCI-H1975 | 0.165 |
| HCC-827 | 0.464 |
| NCI-H2347 | 0.389 |
| NCI-H1355 | 0.375 |

| Cell Line | relative viability |
| --- | --- |
| NCI-H650 | 0.475 |
| CAL-12T | 0.245 |
| NCI-H1666 | 0.582 |
| EPLC-272H | 0.333 |
| NCI-H23 | 0.792 |
| NCI-H1915 | 0.328 |
| NCI-H1437 | 0.649 |
| NCI-H322M | 0.259 |
| NCI-H2085 | 0.243 |
| HCC-15 | 0.53 |
| NCI-H1944 | 0.282 |
| PC-3 [JPC-3] | 0.939 |
| EKVX | 0.306 |
| LC-2-ad | 0.478 |
| NCI-H1650 | 0.221 |
| NCI-H2170 | 0.489 |

Source: the supplement of paper PMC10307832
